Assay results: patent US5691310A, “Methods of treatment using proANF peptides” (priority 1995, dated 1997)

Columns and labels:
[1] = system: particulate guanylate cyclase; assay: particulate guanylate cyclase activity in the kidney; type: biochemical; settings: 1 μM; whole kidney homogenates, renal cortical and medullary membranes, isolated distal nephron
Protocol: Testing is also carried out to determine biologic effects of these peptides by measuring their effects on particulate guanylate activity in the kidney.

[2] = overcoming the negative ionotropic effect of Verapamil
porcine aorta = assay: vasodilation of porcine aortic strips preconstricted with 0.3 micromolar phenylephrine; parameters: species or system pig; settings: for increase in cyclic GMP levels over baseline levels: associated with vasodilation of porcine aorta; for vasodilation: porcine aorta
Protocol: 30 Kg pigs are sacrificed, and aortic strips are harvested. The strips are attached to F-60 transducer (Narco-BioSystems, Houston, Tex.) and attached to a physiography (Narco-BioSystems) while being submerged in a muscle tissue bath comprising a Krebs Ringer solution at 37° C., with 95% 02 -5% CO2, bubbled through the bath. Percentage vasodilation is measured versus time (as reported in FIG. 1) after preconstriction with 0.3 micromolar phenylephrine.

healthy human subjects = assay: infusion into healthy human subjects; type: in vivo; settings: healthy humans; for urine volume / urine flow (in words): 100 ng/kg body wt per minute for 1 hour i.v.; for sodium excretion compared to baseline (in words): 100 ng/kg body wt per minute for 60 minutes; for systolic and diastolic blood pressures: 100 ng/kg/min i.v. for 60 minutes
Protocol: Infusion of these peptides into healthy human subjects was performed as follows: Human pro-ANF 1-30, pro-ANF 31-67, and pro-ANF 79-98, and hANF (i.e., pro-ANF […], were synthesized by Peninsula Laboratories (Belmont, Calif.). High pressure liquid chromatography (HPLC) analysis was performed on a sample of each of the four peptides to ensure purity. The peptides were dissolved in a sterile 0.9% saline solution to a concentration of 100 μg/ml and dispensed in 2 and 5 ml aliquots into sealed sterile vials. At the time of dispensing, randomly selected vials were tested for pyrogens and sterility. Prior to labeling the vials, the actual peptide content of the dispensed solution were determined by direct radioimmunoassay to account for any possible absorption of the respective peptides to the walls of the vials. All vials were then stored at -80° C. until thawed for individual study.
Normal healthy subjects were chosen on the basis of age (between 20 and 50 years), physical examination and biochemical screenings. The subjects consumed their normal diets prior to testing. The subjects fasted overnight and were tested in the morning in the seated position. Intravenous catheters were placed bilaterally for the administration of pro-hANF 1-30, pro-hANF 31-67, pro-hANF 79-98 and hANF [pro-hANF 99-126] and for blood sampling. After completion of a 45-minute equilibration period, there were three 60-minute phases of the study: baseline, experimental infusion (60 minutes) and recovery (3 hours). The baseline phase consisted of two 30 minute urine collection periods, the experimental phase consisted of three 20 minute urine and plasma collection periods, and the recovery phase consisted of two 30 minute urine and plasma collection periods each hour for three hours post-infusion. Urine output was replaced on a milliliter per milliliter basis throughout the study by administering oral water or orange juice. Urine samples were obtained by voiding at the designated collection periods.
The 36 subjects were divided into 6 groups. One group (i.e., the control group) received a placebo infusion of 0.9% sodium chloride during the experimental infusion phase. […] The four remaining groups of six subjects each received human pro-hANF 1-30, pro-hANF 31-67, pro-hANF 79-98 and hANF. The four groups received the peptides by continuous infusion at the rate of 0.1 μg/kg per minute. The volume administered per hour during the experimental infusion phase was 10 ml for all four peptides and the placebo. All infusions were given by a constant-rate infusion pump, with the final concentrations of prohANFs adjusted for the subjects' body weight. The subjects heart rate and cuff blood pressure were taken at 5 minute intervals throughout the study. The excreted urine was analyzed for sodium concentration.

[3] = system: renal medullary Na+-K+-ATPase; assay: inhibition of renal medullary Na+-K+-ATPase activity; type: biochemical; settings: for inhibition of renal medullary Na+-K+-ATPase activity: 10^-11 M
Munich-Wistar rats = assay: rat clearance model (diuresis and salt excretion); type: in vivo
Protocol: The same three peptides and ANF from Example I are tested using the rat clearance model. Six control rats and six experimental Munich-Wistar rats, each weighing 150-200 grams, are used for each peptide, with catheters being placed in both jugular veins and in the femoral artery. The ureters are cannulated for simultaneous urine collections with femoral artery blood collections.
After inserting the catheters, a stabilization of one hour is allowed. A 10 μg/kg bolus of each of the respective human sequences of the peptides is given via the jugular vein to six experimental rats followed by a sustaining infusion of 0.1 μg/kg/min for 60 minutes. Blood and urine samples are collected at 20 minute intervals during this 60 minute infusion. In both the control and experimental animals, hematocrits and plasma sodium values remained at the same levels pre- and post-infusion while blood pressure decreased with each of these peptides (see Attachment B).

[4] = system: human subjects with class II New York Heart Association congestive heart failure; assay: infusion into human subjects with congestive heart failure; type: in vivo; settings: for diuretic properties (in words): congestive heart failure patients; for urine output increase at the end of the 60 minute infusion: congestive heart failure, 0.1 μg/kg body wt/minute; for increase of sodium excretion: human subjects with congestive heart failure
Protocol: Human proANF's 1-30, 31-67, 79-98, and 99-126 (i.e., ANF) were infused into human subjects with class II New York Heart Association congestive heart failure. An identical protocol to that used in example V where these peptides were infused into healthy human subjects was utilized. (See Attachment C for a detailed description of this protocol). The human subjects with congestive heart failure received an identical dose (0.1 μg/kg body wt/minute for 60 minutes) that the healthy human subjects received.

[5] = system: particulate guanylate cyclase; assay: cyclic GMP / particulate guanylate cyclase activation in cultured smooth muscle cells and porcine aorta; type: cell-based; settings: cultured smooth muscle cells
[6] = molecular target: particulate guanylate cyclase of porcine aorta and cultured smooth muscle cells (porcine (aorta); not stated for the cultured smooth muscle cells)
[7] = system: rat or other vertebrate species; assay: biologic effects of peptides of the rat ANF prohormone; type: in vivo; settings: peptides of the rat sequence, in the rat or other vertebrate species
Description: At first it was thought that only the C-terminus (i.e., ANF) of ANF prohormone circulated. Before any portion of the rest of the prohormone was known to circulate Dr. Frossman patented the whole rat prohormone which he called Cardiodilatin and portion(s) thereof (U.S. Pat. No. 4,751,284). In this patent Dr. Frossman patented the rat sequence of the ANF prohormone. In his patent he stated that parts of the whole prohormone had activity if the C-terminal end (i.e., ANF) was attached to it. In publications he has stated that the rest of the rat prohormone only has activity if the C-terminus (i.e., ANF with its intact ring structure) of the rat prohormone is attached to it (Frossman W.G., Contr. Nephrol. 50:1-13, 1986) (see Attachment A). Dr. Frossman has never published that other peptide(s) originating from the rat ANF prohormone that he patented have any biologic activity by themselves. Dr. Frossman has further stated on page 11 of Attachment A "I think that the 28 a.a. […] It has been over 10 years since Frossmann submitted his patent and he has never published that any portion of cardiodilatin (i.e., rat ANF prohormone) has any biologic activity if the respective portion is not attached to the ANF portion of cardiodilatin.

[8] = period A, control period (before peptide)
[9] = period B, 1st 60min experimental period, 10 μg/kg bolus then 0.1 μg/kg/min
[10] = period C, 2nd 60min experimental period

For “H-NPMYNAVSNADLMDFKNLLDHLEEKMPLED-OH [proANF 1-30, H-Asn-Pro-Met-Tyr-Asn-Ala-Val-Ser-Asn-Ala-Asp-Leu-Met-Asp-Phe-Lys-Asn-Leu- Leu-Asp-His-Leu-Glu-Glu-Lys-Met-Pro-Leu-Glu-Asp-OH]”, the “particulate guanylate cyclase activity” value [1] was “enhance particulate guanylate cyclase”, the “negative ionotropic (slowing heartbeat) effect of Verapamil” value [2] was “can overcome the negative ionotropic (slowing heartbeat) effect” and the “increase in cyclic GMP levels over baseline levels” value (porcine aorta) was “four-to-five”. For the same molecule, the vasodilation (porcine aorta) was “cause vasodilation”, the “increase of urine flow” value (healthy human subjects) was 4-12 fold and the “urine volume / urine flow (in words)” value (healthy human subjects) was “increase in urine volume”. For the same molecule, the “sodium excretion compared to baseline (in words)” value (healthy human subjects) was “significantly (P<0.05) increased sodium excretion”, the “systolic and diastolic blood pressures” value (healthy human subjects) was “decreasing systolic and diastolic blood pressures” and the “inhibition of renal medullary Na+-K+-ATPase activity” value [3] was “Inhibition of renal medullary Na+-K+-ATPase activity”. For the same molecule, the “UNa V, urinary sodium excretion rate” value (Munich-Wistar rats; [8]) was 36.37 ± 8.09 μeq-min^-1 -g kidney wt^-1, the “UNa V, urinary sodium excretion rate” value (Munich-Wistar rats; [9]) was 224.30 ± 60.34 μeq-min^-1 -g kidney wt^-1 and the “UNa V, urinary sodium excretion rate” value (Munich-Wistar rats; [10]) was 384.98 ± 124.39 μeq-min^-1 -g kidney wt^-1. The “diuretic properties (in words)” value [4] was “stronger diuretic properties than ANF”, the “urine output increase at the end of the 60 minute infusion” value [4] was 3- to 6 fold and the “increase of sodium excretion” value [4] was “three-to-eight”. For the same molecule, the “cyclic GMP levels” value [5] was “increase cyclic GMP levels”.

For `COc1ccc2cc([C@H](C)C(=O)O)ccc2c1` [Naproxen, reference compound], the “effect on the peptides' inhibition of renal medullary Na+-K+-ATPase” value ([3]; 0.5 mM) was “completely blocked each of these peptides'effects on renal medullary Na+-K+-ATPase”.

“human atrial natriuretic factor (ANF) (from UniProt P01160) (peptide)” showed a half maximal activation (ED50) of guanylate cyclase activity [6] of 0.01 µM.

In the case of “rat proANF 31-67: peptide consisting of amino acids 31-67 from the rat ANF prohormone (EVMPPQALSEQTDEAGAALSSLSEVPPWTGEVNPSQR; UniProt P01161 55-91, looked up, fragment)”, the “biologic effect(s) (blood pressure lowering, sodium excretion or diuretic effects)” value [7] is reported as “no biologic effect(s)”.

For “angiotensin II [comparison peptide in the Na+-K+-ATPase test, reference compound]”, the “inhibition of renal medullary Na+-K+-ATPase activity” value [3] was “Inhibition of renal medullary Na+-K+-ATPase activity”.

With “rat proANF 1-30: peptide consisting of amino acids 1-30 from the rat ANF prohormone (NPVYSAVSNTDLMDFKNLLDHLEEKMPVED; UniProt P01161 25-54, looked up, fragment)” the “biologic effect(s) (blood pressure lowering, sodium excretion or diuretic effects)” value [7] was “no biologic effect(s)”.

In the case of “H-SSDRSALLKSKLRALLTAPR-OH [proANF 79-98, H-Ser-Ser-Asp-Arg-Ser-Ala-Leu-Leu-Lys-Ser-Lys-Leu-Arg-Ala-Leu-Leu-Thr-Ala- Pro-Arg-OH]”, the “particulate guanylate cyclase activity” value [1] is reported as “enhance particulate guanylate cyclase”, the “negative ionotropic (slowing heartbeat) effect of Verapamil” value [2] is reported as “can overcome the negative ionotropic (slowing heartbeat) effect” and the “increase in cyclic GMP levels over baseline levels” value (porcine aorta) is reported as “four-to-five”. The vasodilation (porcine aorta) was “cause vasodilation”, the “increase of urine flow” value (healthy human subjects) was 4-12 fold and the “urine volume / urine flow (in words)” value (healthy human subjects) was “increase in urine volume”. The “sodium excretion compared to baseline (in words)” value (healthy human subjects) was “each of these respective peptides except proANF 79-98 significantly (P<0.05) increased sodium excretion”, the “systolic and diastolic blood pressures” value (healthy human subjects) was “decreasing systolic and diastolic blood pressures” and the “inhibition of renal medullary Na+-K+-ATPase activity” value [3] was “Inhibition of renal medullary Na+-K+-ATPase activity”. The “UNa V, urinary sodium excretion rate” value (Munich-Wistar rats; [8]) was 90.88 ± 77.76 μeq-min^-1 -g kidney wt^-1, the “UNa V, urinary sodium excretion rate” value (Munich-Wistar rats; [9]) was 363.98 ± 261.85 μeq-min^-1 -g kidney wt^-1 and the “UNa V, urinary sodium excretion rate” value (Munich-Wistar rats; [10]) was 564.22 ± 315.48 μeq-min^-1 -g kidney wt^-1. The “diuretic properties (in words)” value [4] was “stronger diuretic properties than ANF”, the “urine output increase at the end of the 60 minute infusion” value [4] was 3- to 6 fold and the “increase of sodium excretion” value [4] was “no significant increase in sodium excretion”. The “cyclic GMP levels” value [5] was “increase cyclic GMP levels”.

With “rat proANF 79-98: peptide consisting of amino acids 79-98 from the rat ANF prohormone (PSDRSALLKSKLRALLAGPR; UniProt P01161 103-122, looked up, fragment)” the “biologic effect(s) (blood pressure lowering, sodium excretion or diuretic effects)” value [7] was “no biologic effect(s)”.

Work on H-SSDRSALLKSKLRALLTAPR-OH [human pro-ANF (79-98)] yielded a half maximal activation (ED50) of guanylate cyclase activity [6] of 0.01 µM.
